ChEMBL document CHEMBL3885881, “DrugMatrix”

Species: Rattus norvegicus
Test: DrugMatrix - Regimen: Daily Repeat
Format: toxicity, organism-based, Sprague-Dawley
Set-up: regimen Daily Repeat, gender Male, age 6-8 weeks
Details: in vivo, po, route oral GAVAGE, vehicle 100 % WATER; for ABSOLUTE BASOPHIL / ABSOLUTE EOSINOPHIL / ABSOLUTE LYMPHOCYTE / ABSOLUTE MONOCYTE / ABSOLUTE SEGMENTED NEUTROPHIL / BASOPHIL / EOSINOPHIL / ERYTHROCYTE COUNT / HEMATOCRIT / HEMOGLOBIN / LEUKOCYTE COUNT / LYMPHOCYTE / MEAN CORPUSCULAR HEMOGLOBIN / MEAN CORPUSCULAR HEMOGLOBIN CONCENTRATION / MEAN CORPUSCULAR VOLUME / MONOCYTE / NEUTROPHIL / NUCLEATED RED BLOOD CELLS / PLATELET COUNT: tissue Blood; for ALANINE AMINOTRANSFERASE / ALBUMIN / ALKALINE PHOSPHATASE / ASPARTATE AMINOTRANSFERASE / BLOOD UREA NITROGEN / CARBON DIOXIDE / CHLORIDE / CHOLESTEROL / CREATINE PHOSPHOKINASE / CREATININE / GLUCOSE / LACTATE DEHYDROGENASE / LIPASE / PHOSPHORUS / POTASSIUM / SODIUM / TOTAL BILIRUBIN / TOTAL PROTEIN / URIC ACID: tissue Plasma
[1] = 200 mg/kg, 120 h, dose level Low, time 5 day
[2] = 2625 mg/kg, 72 h, dose level High, time 3 day
[3] = 2625 mg/kg, 120 h, dose level High, time 5 day

For O=C(O)c1cccnc1 [NIACIN], the “ABSOLUTE BASOPHIL” value [1] was 0 CELLS/uL, the “ABSOLUTE EOSINOPHIL” value [1] was 0 CELLS/uL and the “ABSOLUTE LYMPHOCYTE” value [1] was 13805.67 CELLS/uL. The “ABSOLUTE MONOCYTE” value [1] was 0 CELLS/uL, the “ABSOLUTE SEGMENTED NEUTROPHIL” value [1] was 1394.33 CELLS/uL and the BASOPHIL [1] was 0%. For the same molecule, the EOSINOPHIL [1] was 0%, the “ERYTHROCYTE COUNT” value [1] was 5.57 x10E6/uL and the HEMATOCRIT [1] was 34.77%. For the same molecule, the HEMOGLOBIN [1] was 13.77 G/DL, the “LEUKOCYTE COUNT” value [1] was 15.2 x10E3/uL and the LYMPHOCYTE [1] was 91%. For the same molecule, the “MEAN CORPUSCULAR HEMOGLOBIN” value [1] was 24.73 pg, the “MEAN CORPUSCULAR HEMOGLOBIN CONCENTRATION” value [1] was 39.57 G/DL and the “MEAN CORPUSCULAR VOLUME” value [1] was 62.53 fL. For the same molecule, the MONOCYTE [1] was 0%, the NEUTROPHIL [1] was 9% and the “NUCLEATED RED BLOOD CELLS” value [1] was 0.33 /100WBC. For the same molecule, the “PLATELET COUNT” value [1] was 1180.67 x10E3/uL, the “ALANINE AMINOTRANSFERASE” value [1] was 55.33 u/L and the ALBUMIN [1] was 4.03 G/DL. For the same molecule, the “ALKALINE PHOSPHATASE” value [1] was 296.33 u/L, the “ASPARTATE AMINOTRANSFERASE” value [1] was 77.67 u/L and the “BLOOD UREA NITROGEN” value [1] was 12.67 mg/dL. The “CARBON DIOXIDE” value [1] was 31.33 mmol/L, the CHLORIDE [1] was 101.67 MEQ/L and the CHOLESTEROL [1] was 76.33 mg/dL. For the same molecule, the “CREATINE PHOSPHOKINASE” value [1] was 209 u/L, the CREATININE [1] was 0.23 mg/dL and the GLUCOSE [1] was 140 mg/dL. For the same molecule, the “LACTATE DEHYDROGENASE” value [1] was 212 u/L, the LIPASE [1] was 13 u/L and the PHOSPHORUS [1] was 12.63 mg/dL. The POTASSIUM [1] was 6.55 MEQ/L, the SODIUM [1] was 145.13 MEQ/L and the “TOTAL BILIRUBIN” value [1] was 0.13 mg/dL. For the same molecule, the “TOTAL PROTEIN” value [1] was 5.93 G/DL, the “URIC ACID” value [1] was 1.43 mg/dL and the “ABSOLUTE BASOPHIL” value [2] was 0 CELLS/uL. For the same molecule, the “ABSOLUTE EOSINOPHIL” value [2] was 135 CELLS/uL, the “ABSOLUTE LYMPHOCYTE” value [2] was 10224 CELLS/uL and the “ABSOLUTE MONOCYTE” value [2] was 258 CELLS/uL. The “ABSOLUTE SEGMENTED NEUTROPHIL” value [2] was 1683 CELLS/uL, the BASOPHIL [2] was 0% and the EOSINOPHIL [2] was 1%. The “ERYTHROCYTE COUNT” value [2] was 5.89 x10E6/uL, the HEMATOCRIT [2] was 36.17% and the HEMOGLOBIN [2] was 14.27 G/DL. For the same molecule, the “LEUKOCYTE COUNT” value [2] was 12.3 x10E3/uL, the LYMPHOCYTE [2] was 84% and the “MEAN CORPUSCULAR HEMOGLOBIN” value [2] was 24.23 pg. For the same molecule, the “MEAN CORPUSCULAR HEMOGLOBIN CONCENTRATION” value [2] was 39.43 G/DL, the “MEAN CORPUSCULAR VOLUME” value [2] was 61.33 fL and the MONOCYTE [2] was 2%. The NEUTROPHIL [2] was 13%, the “NUCLEATED RED BLOOD CELLS” value [2] was 0.33 /100WBC and the “PLATELET COUNT” value [2] was 1326 x10E3/uL. The “ALANINE AMINOTRANSFERASE” value [2] was 45 u/L, the ALBUMIN [2] was 3.73 G/DL and the “ALKALINE PHOSPHATASE” value [2] was 269.33 u/L. For the same molecule, the “ASPARTATE AMINOTRANSFERASE” value [2] was 105 u/L, the “BLOOD UREA NITROGEN” value [2] was 15 mg/dL and the “CARBON DIOXIDE” value [2] was 29 mmol/L. The CHLORIDE [2] was 100.33 MEQ/L, the CHOLESTEROL [2] was 68.67 mg/dL and the “CREATINE PHOSPHOKINASE” value [2] was 532.33 u/L. For the same molecule, the CREATININE [2] was 0.18 mg/dL, the GLUCOSE [2] was 145.67 mg/dL and the “LACTATE DEHYDROGENASE” value [2] was 900 u/L. For the same molecule, the LIPASE [2] was 11.33 u/L, the PHOSPHORUS [2] was 12.33 mg/dL and the POTASSIUM [2] was 6.2 MEQ/L. For the same molecule, the SODIUM [2] was 144.73 MEQ/L, the “TOTAL BILIRUBIN” value [2] was 0.13 mg/dL and the “TOTAL PROTEIN” value [2] was 5.57 G/DL. The “URIC ACID” value [2] was 1.47 mg/dL, the “ABSOLUTE BASOPHIL” value [3] was 0 CELLS/uL and the “ABSOLUTE EOSINOPHIL” value [3] was 0 CELLS/uL. The “ABSOLUTE LYMPHOCYTE” value [3] was 15227.67 CELLS/uL, the “ABSOLUTE MONOCYTE” value [3] was 166 CELLS/uL and the “ABSOLUTE SEGMENTED NEUTROPHIL” value [3] was 1206.33 CELLS/uL. For the same molecule, the BASOPHIL [3] was 0%, the EOSINOPHIL [3] was 0% and the “ERYTHROCYTE COUNT” value [3] was 5.68 x10E6/uL. The HEMATOCRIT [3] was 36.37%, the HEMOGLOBIN [3] was 14.23 G/DL and the “LEUKOCYTE COUNT” value [3] was 16.6 x10E3/uL. The LYMPHOCYTE [3] was 91.67%, the “MEAN CORPUSCULAR HEMOGLOBIN” value [3] was 25.07 pg and the “MEAN CORPUSCULAR HEMOGLOBIN CONCENTRATION” value [3] was 39.17 G/DL. The “MEAN CORPUSCULAR VOLUME” value [3] was 64 fL, the MONOCYTE [3] was 1% and the NEUTROPHIL [3] was 7.33%. For the same molecule, the “NUCLEATED RED BLOOD CELLS” value [3] was 0.33 /100WBC, the “PLATELET COUNT” value [3] was 1260.67 x10E3/uL and the “ALANINE AMINOTRANSFERASE” value [3] was 55 u/L. The ALBUMIN [3] was 4.07 G/DL, the “ALKALINE PHOSPHATASE” value [3] was 397.33 u/L and the “ASPARTATE AMINOTRANSFERASE” value [3] was 96 u/L. For the same molecule, the “BLOOD UREA NITROGEN” value [3] was 16.67 mg/dL, the “CARBON DIOXIDE” value [3] was 32.33 mmol/L and the CHLORIDE [3] was 100.67 MEQ/L. The CHOLESTEROL [3] was 55.33 mg/dL, the “CREATINE PHOSPHOKINASE” value [3] was 323.67 u/L and the CREATININE [3] was 0.2 mg/dL. For the same molecule, the GLUCOSE [3] was 151 mg/dL, the “LACTATE DEHYDROGENASE” value [3] was 666 u/L and the LIPASE [3] was 10.33 u/L. For the same molecule, the PHOSPHORUS [3] was 11.7 mg/dL, the POTASSIUM [3] was 6.01 MEQ/L and the SODIUM [3] was 145.9 MEQ/L. For the same molecule, the “TOTAL BILIRUBIN” value [3] was 0.27 mg/dL, the “TOTAL PROTEIN” value [3] was 5.7 G/DL and the “URIC ACID” value [3] was 1.43 mg/dL.
